This experiment deals with human Fab of κ-type (Homo sapiens, UniProt P01834+P01857). Kind of experiment: STD NMR screening (1D saturation transfer difference) for binding to antibody. Also on record: key: 0 no; 1 weak; 2 strong signal. To be noted: 0.5 mM ligand; for NMR signal conc 1: 500 nM antibody, 298 K; for NMR signal conc 2: 100 nM antibody; for NMR signal conc 3: 20 nM antibody. How it is done:
All NMR experiments were performed at 298 K on a Bruker Avance 500 MHz spectrometer. The 1D saturation transfer difference method (STD NMR) was used as screening assay (Mayer M. and Meyer B. 1999. Characterization of Ligand Binding by Saturation Transfer Difference NMR Spectroscopy. Angew. Chem., Int. Ed. 38: 1784-1788) using several antibody concentrations in order to differentiate between compounds with different binding strength (Peng J. W., Lepre C. A., Fejzo J., Abdul-Manan N. and Moore J. M. 2001. Nuclear Magnetic Resonance-Based Approaches for Lead Generation in Drug Discovery. Methods in Enzymology. 338: 202-230). The antibody used was a human Fab of κ-type. In all cases ligands were tested one-by-one. On-resonance irradiation was set at 0 ppm and off-resonance irradiation was set at −40 ppm. Irradiation time in each scan was 2 s and 16 K data points were collected with 1024 scans in total. Compounds for testing were dissolved in DMSOd6 to a concentration of 50 mM and 5 μL of the concentrated ligand solution was added to 495 μL buffer solution. The samples thus consisted of 0.5 mM ligand, 20 mM phosphate buffer, 100 mM NaCl and […] in D2O at pD 7.5, uncorrected reading on pH-meter.
Compounds were initially tested for binding with 0.5 μM antibody. Interesting ligands were further tested with protein concentrations of 100 or 20 nM. A one-dimensional ^1H-spectrum was acquired first and subsequently a saturation transfer difference (STD) spectrum was acquired. Each analysis took 60 minutes on the spectrometer. […] The analysis was setup for automation so that several samples could be analysed over night (usually 10-15 samples/night).
As many as 46 of the virtual screening hits were tested with NMR according to the procedure described above. The results from NMR screening together with additional compound data are compiled in Table 1 below. In total 24 compounds gave a positive result in the first round with the highest antibody concentration (500 nM). These 24 compounds were subjected to a second round with an antibody concentration of 100 nM. The 4 compounds showing the strongest signal in the second round were tested for binding in a third round with 20 nM antibody. Three of the compounds in the third round gave a positive result and where thus designated as the strongest binders to the antibody out of the 46 tested compounds.

Where a name gives a salt, the structure may show the parent alone.

Sequence of human Fab of κ-type (P01857 with tags, fused parts or gaps, other chains not shown): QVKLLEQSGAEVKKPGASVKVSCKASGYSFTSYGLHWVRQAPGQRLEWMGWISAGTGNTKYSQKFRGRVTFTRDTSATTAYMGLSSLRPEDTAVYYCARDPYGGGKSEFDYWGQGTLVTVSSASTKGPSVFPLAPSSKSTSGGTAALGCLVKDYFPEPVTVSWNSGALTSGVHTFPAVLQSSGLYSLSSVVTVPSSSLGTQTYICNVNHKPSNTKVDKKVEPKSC

On to `O=C(CC1OC(=O)c2ccccc21)c1ccccn1` (centres unmarked) [AB_0000790, 3-[2-oxo-2-(2-pyridyl)ethyl]-1,3-dihydroisobenzofuran-1-one], for which the “NMR signal conc 1” value came to 0.

`CC1(C)CC(=O)c2sc(NC(=O)c3cccnc3)nc2C1` [AB_0000750, n-(5,5-dimethyl-7-oxo-4,5,6,7-tetrahydro-benzothiazol-2-yl)-nicotinamide]: the “NMR signal conc 1” value was found to be 0. The same measure, in the same setting: the same measure for `O=C(COc1ccc2ccccc2c1)ON1C(=O)CCC1=O` [AB_0001230, (2-naphthoxy)acetic acid, n-hydroxysuccinimide ester]: 0; for `CCCCc1c(O)nc2ccccn2c1=O` [AB_0000990, 3-butyl-2-hydroxy-4h-pyrido[1,2-a]pyrimidin-4-one]: 0. As for `CCn1ccnc1CC1COc2ccccc2O1` (centres unmarked) [AB_0001070, imiloxan hydrochloride], the “NMR signal conc 2” value worked out at 1 and the “NMR signal conc 1” value was 1. For `O=C(c1cccs1)c1cnc2ccccn2c1=O` [AB_0001300, 3-(2-thienylcarbonyl)-4h-pyrido[1,2-a]pyrimidin-4-one], the “NMR signal conc 2” value was 0 and the “NMR signal conc 1” value is 1. Consider `O=C(c1ccccn1)C(O)c1ccccn1` (stereo not drawn) [AB_0000510, alpha-pyridoin], for which the “NMR signal conc 1” value is on record as 0. For the molecule `N#CCc1ccc(C(=O)c2ccccc2F)s1` [AB_0001010, 2-[5-(2-fluorobenzoyl)-2-thienyl]acetonitrile], the “NMR signal conc 3” value was found to be 2, the “NMR signal conc 2” value turned out to be 2 and the “NMR signal conc 1” value was 2. In the case of `O=Cc1cccc(C(F)(F)F)c1Cl` [AB_0001030, 2-chloro-3-(trifluoromethyl)benzaldehyde], the “NMR signal conc 2” value was 0 and the “NMR signal conc 1” value is reported as 1. For the molecule `CC1CN=C(SCc2ccccc2)N1.Cl` (centres unmarked) [AB_0001080, 2-(benzylthio)-5-methyl-4,5-dihydro-1h-imidazol-3-ium chloride], the “NMR signal conc 1” value is 0. `OC(CNCc1ccccc1)C(F)(F)F` (centres unmarked) [AB_0001000, 3-(benzylamino)-1,1,1-trifluoro-2-propanol]: the “NMR signal conc 2” value was 0 and the “NMR signal conc 1” value was 1. For `O=C(c1ccc2ccccc2c1)n1ccnc1` [AB_0000900, 1-(2-naphthoyl)imidazole], the “NMR signal conc 1” value is given as 0. `N=c1sccn1CC(=O)c1ccc2ccccc2c1` [AB_0001060, 2-(2-imino-thiazol-3-yl)-1-naphthalen-2-yl-ethanone]: the “NMR signal conc 2” value worked out at 0 and the “NMR signal conc 1” value was determined as 2.

For `COC(=O)C1OC1c1cc(Cl)ccc1OC` (centres unmarked) [AB_0001240, methyl 3-(5-chloro-2-methoxyphenyl)-2,3-epoxypropionate], the “NMR signal conc 2” value turned out to be 1 and the “NMR signal conc 1” value turned out to be 1. Consider `S=C(Oc1ccccn1)c1csc(C2COc3ccccc3O2)n1` (centres unmarked) [AB_0001260, 2-pyridyl 2-(2,3-dihydro-1,4-benzodioxin-2-yl)-1,3-thiazole-4-carbothioate], for which the “NMR signal conc 1” value worked out at 0. Still for that read-out and setting: the same measure for `CC1=NN(c2cccc(Cl)c2)C(=O)C1` [AB_0000530, 1-(3-chlorophenyl)-3-methyl-2-pyrazolin-5-one]: 0; for `O=C(O)c1ccnn(-c2ccccc2)c1=O` [AB_0001180, 3-oxo-2-phenyl-2,3-dihydro-4-pyridazinecarboxylic acid]: 0. With `Cc1cc(C)nc(SCC(=O)Nc2ccc(F)c(Cl)c2)n1` [AB_0000580, n1-(3-chloro-4-fluorophenyl)-2-[(4,6-dimethylpyrimidin-2-yl)thio]acetamide], the “NMR signal conc 2” value is recorded as 0 and the “NMR signal conc 1” value is 1.

Regarding `c1ccc(-c2nnc3ccccc3n2)cc1` [AB_0000600, 3-phenyl-1,2,4-benzotriazine], the “NMR signal conc 2” value turned out to be 1 and the “NMR signal conc 1” value turned out to be 1. `COC(=O)c1ccc2ccccc2c1O` [AB_0001200, methyl 1-hydroxy-2-naphthoate]: the “NMR signal conc 2” value is on record as 0 and the “NMR signal conc 1” value was found to be 1. Consider `O=C1C(=O)N(c2ccccc2)C(=O)N1c1ccccc1` [AB_0000540, 1,3-diphenylparabanic acid], for which the “NMR signal conc 1” value is on record as 0. In the case of `Sc1nnc(-c2csc(-c3ccccc3)n2)o1` [AB_0000760, 5-(2-phenyl-1,3-thiazol-4-yl)-1,3,4-oxadiazol-2-ylhydrosulfide], the “NMR signal conc 2” value is 0 and the “NMR signal conc 1” value worked out at 1. For `Fc1cc(F)cc(Cc2nc(-c3cccs3)no2)c1` [AB_0001020, 5-(3,5-difluorobenzyl)-3-(2-thienyl)-1,2,4-oxadiazole] the same measures were 0 and 1.

In the case of `O=C1C(=Cc2ccccc2)C(=O)c2ccccc21` [AB_0000730, 2-benzylidene-1,3-indandione], the “NMR signal conc 1” value is reported as 0. Regarding `COc1ccc(CC(C)=O)cc1Br` [AB_0000910, 3-bromo-4-methoxyphenylacetone], the “NMR signal conc 3” value came out at 0, the “NMR signal conc 2” value is given as 2 and the “NMR signal conc 1” value worked out at 2.

As for `COC(=O)NC(=O)c1nc(-c2ccccc2)c(C)o1` [AB_0000670, methyl n-[(5-methyl-4-phenyl-1,3-oxazol-2-yl)carbonyl]carbamate], the “NMR signal conc 2” value was found to be 0 and the “NMR signal conc 1” value is 2. In the case of `CCOC(=O)c1c[nH]c2ccccc2c1=O` [AB_0001100, ethyl 4-oxo-1,4-dihydroquinoline-3-carboxylate], the “NMR signal conc 1” value is listed as 0. The same measure, in the same setting: the same measure for `O=C1C=C(Cl)C(=O)N1c1ccccc1` [AB_0000930, 3-chloro-1-phenyl-pyrrole-2,5-dione]: 0. Turning to `CSCCNC(=O)c1nc2ccccc2c(=O)n1N` [AB_0001130, 3-amino-n-[2-(methylthio)ethyl]-4-oxo-3,4-dihydroquinazoline-2-carboxamide], the “NMR signal conc 1” value came to 0.

As to `c1ccc(-c2nnc(-c3ccccn3)nn2)nc1` [AB_0000700, 3,6-di-2-pyridyl-1,2,4,5-tetrazine], the “NMR signal conc 1” value was found to be 0. With `OC(CNCc1ccc(Cl)cc1)CSc1ccccc1` (centres unmarked) [AB_0001270, 1-[(4-chlorobenzyl)amino]-3-(phenylthio)propan-2-ol], the “NMR signal conc 2” value came to 0 and the “NMR signal conc 1” value came to 1.

Consider `FC(F)(F)c1cccc(-n2ccnc2)c1` [AB_0001220, 1-(3-trifluoromethylphenyl)imidazole], for which the “NMR signal conc 2” value was 0 and the “NMR signal conc 1” value came out at 2. For `c1ccc(CCn2cc(-c3ccncc3)cn2)cc1` [AB_0001190, 4-[1-(2-phenylethyl)-(1h)-pyrazol-4-yl]pyridine] the same measures were 0 and 2. Turning to `O=C1c2ccncc2C(=O)N1c1ccc(Cl)cc1` [AB_0000610, 2-(4-chlorophenyl)-2,3-dihydro-1h-pyrrolo[3,4-c]pyridine-1,3-dione], the “NMR signal conc 1” value came out at 0.

As for `Clc1ccc(COn2ccnc2)cc1Cl` [AB_0001150, 1-[(3,4-dichlorobenzyl)oxy]-1h-imidazole], the “NMR signal conc 2” value is given as 0 and the “NMR signal conc 1” value is given as 2.

Turning to `O=C1SC(Br)C(=O)N1c1ccccc1` (centres unmarked) [AB_0000880, 5-bromo-3-phenyl-thiazolidine-2,4-dione], the “NMR signal conc 1” value is reported as 0. Turning to `OCC(Oc1ccccc1)c1ccccc1` (centres unmarked) [AB_0000810, 2-phenoxy-2-phenyl-1-ethanol], the “NMR signal conc 2” value was 1 and the “NMR signal conc 1” value is 2. For `CC(C)=CC1=C(O)C(=O)c2ccccc2C1=O` [AB_0001040, 2-hydroxy-3-(2-methyl-1-propenyl)-1,4-naphthoquinone] the same measures were 1 and 1.

`CN(C)C(=O)N(C)c1ccc(Cl)c(Cl)c1` [AB_0001250, 1-(3,4-dichlorophenyl)-1,3,3-trimethylurea]: the “NMR signal conc 3” value worked out at 1, the “NMR signal conc 2” value is recorded as 2 and the “NMR signal conc 1” value is 2.

Consider `O=C(Cc1ncon1)Nc1ccc(F)cc1F` [AB_0000690, n1-(2,4-difluorophenyl)-2-(1,2,4-oxadiazol-3-yl)acetamide], for which the “NMR signal conc 1” value worked out at 0. Same read-out and setting: the same measure for `OC(CNCc1ccc(Cl)cc1Cl)C(F)(F)F` (centres unmarked) [AB_0001170, 3-[(2,4-dichlorobenzyl)amino]-1,1,1-trifluoro-2-propanol]: 0.

The values are drawn from US20090138208A1, “IMMUNOGLOBULIN G BINDING POCKET” (GE HEALTHCARE BIO-SCIENCES AB, priority 2002, published 2009).
